The values that follow come from patent publication US20230097992A1, “BIVALENT EGF FUSION TOXINS” (The Regents of the University of Colorado, a body corporate, priority 2020, published 2023).

Experiment [1] relates to human EGFR-positive HNSCC cell line UMSCC1. Put plainly: CellTiter-Glo Luminescent Cell Viability Assay, UMSCC1. It is filed as cell-based. The note with it: UMSCC1, read-out: IC50 to HNSCC cell lines (Erlotinib). How it is done:
FIG. 9 presents the data from in vitro efficacy analysis of the human EGF fusion toxins against human EGFR-positive HNSCC cell lines using CellTiter-Glo® Luminescent Cell Viability Assay (Promega) Y-axis: inhibition rate of the cell viability by determining the number of viable cells based on the quantification of the ATP present. X-axis: plated fusion toxin concentration. Cycloheximide (1.25 mg/mL) was used as a positive control. The negative control contained cells without fusion toxin. Data were from three individual experiments for each HNSCC cell line. Error bars indicate SD.
Y-axis: inhibition rate of the cell viability by determining the number of viable cells based on the quantification of the ATP present. […] Cycloheximide (1.25 mg/mL) was used as a positive control. […]
In vitro efficacy analysis of the human EGF fusion toxins (mEGF-IT and bEGF-IT) to the human HNSCC tumor cell lines was performed using CellTiter-Glo® Luminescent Cell Viability Assay (Promega Corporation, Madison, Wis.) as described previously (Zheng et al. (2017), Mol. Oncol. 11, 584-594, which is hereby incorporated by reference in its entirety). This cell viability assay measures the luminescence produced because of ATP production from metabolically active cells. […] The luminescence signals were recorded using BioTek Synergy LX Multi-Mode Reader.
IC50 was determined using nonlinear regression (curve fit) of Prism. […]
(In general: ATP-based viability assays read luminescence as a measure of living cells.)

In experiment [2] the test system is residual Cal27 tumor cells. Put plainly: CellTiter-Glo Luminescent Cell Viability Assay, residual Cal27 tumor cells. Type of experiment: cell-based, human. The note with it: residual Cal27 cells from flank xenografts at day 14 after bEGF-IT 50 μg/kg once daily for 10 days. An excerpt: FIGS. 13A-C present in vitro binding affinity and efficacy analysis of the bEGF-IT to the residual Cal27 tumor cells. FIG. 13A: Flow cytometry binding affinity analysis of the bEGF-IT to the residual Cal27 tumor cells. The data were representative of three individual experiments. FIG. 13B: KD determination of the bEGF-IT to the residual Cal27 tumor cells using flow cytometry and nonlinear least squares fit. FIG. 13C: In vitro efficacy analysis of the bEGF-IT to the residual Cal27 tumor cells using CellTiter-Glo® Luminescent Cell Viability Assay. bEGF-IT group (green line); Anti-murine PD-1 immunotoxin group as negative control (blue line). Data were from three individual experiments. Error bars indicate SD.
The tumor was removed from the sacrificed flank-xenograft solid tumor-bearing mice and washed with PBS twice in sterile manner. Then the tumor sample was cut into small pieces (approximately 1 mm^3) on the lid of a petri dish and washed with PBS. The tissue pellet was resuspended in DMEM tissue culture medium and cultured in the T25 flask. After several days of culture, the tissue residues were removed and the residual tumor cells were cultured as parent Cal27 tumor cell line.
It was hypothesized that the residual tumor cells were still sensitive to the human EGF fusion toxin treatment. […]

Experiment [3] has as its system EGFR+ HNSCC cell line, Cal27. Put plainly: Blocking of anti-human EGFR mAb binding to Cal27 by nonbiotinylated fusion toxin (flow cytometry). The note with it: nonbiotinylated fusion toxin as competitor. The text has this: FIGS. 3C-D present representative data from analysis of the blocking of anti-human EGFR mAb binding to human EGFR-expressing (EGFR^+) HNSCC Cal27 by mEGF-IT and bEGF-IT using flow cytometry. FIG. 3C presents representative flow cytometry data, and FIG. 3D presents the percentage inhibition of anti-human EGFR mAb binding to Cal27 cells plotted versus the concentration of binding competitor (mono-EGF-IT or bi-EGF-IT). The data are representative of three individual experiments.
The biotinylated EGF fusion toxins also dose-dependently bound to all other examined HNSCC cell lines (FIG. 3, 11, and Table 4). […] One limitation to the flow cytometry binding assay is that the extent of biotinylation should be similar between the constructs. Otherwise, it could be hard to attribute the differences in fluorescence intensities to a change in affinity. To overcome this limitation, a blocking assay using nonbiotinylated mono-EGF-IT or bi-EGF-IT to block the binding of the anti-human EGFR mAb to the EGFR+ HNSCC cell line, Cal27, was performed (Wang et al, 2007, Bioconjug Chem 18: 944-955). […] The 14 examined HNSCC cell lines represent the main HNSCC cell lines used in the research community of the head and neck cancers.

As to `C#Cc1cccc(Nc2ncnc3cc(OCCOC)c(OCCOC)cc23)c1` [Erlotinib], the IC50 (commonly the concentration at which inhibition is half-maximal) in experiment [1] is 2460 nM.

As for “Bi-EGF IT: DT390 joined by G4S to two human EGF domains linked by (G4S)3, C-terminal 6×His tag; SEQ ID NO: 10”, half-maximal inhibition in experiment [2] (IC50) was put at 0.0562 nM. Further, in experiment [3], the “blocking of anti-human EGFR mAb binding to Cal27 (result in words)” value is listed as “bound significantly stronger to Cal27 cells compared with mono-EGF-IT”.
